Assay [1] has as its target T1, Dual specificity mitogen-activated protein kinase kinase 6 (Homo sapiens, UniProt P52564).
T1 sequence (P52564 whole entry): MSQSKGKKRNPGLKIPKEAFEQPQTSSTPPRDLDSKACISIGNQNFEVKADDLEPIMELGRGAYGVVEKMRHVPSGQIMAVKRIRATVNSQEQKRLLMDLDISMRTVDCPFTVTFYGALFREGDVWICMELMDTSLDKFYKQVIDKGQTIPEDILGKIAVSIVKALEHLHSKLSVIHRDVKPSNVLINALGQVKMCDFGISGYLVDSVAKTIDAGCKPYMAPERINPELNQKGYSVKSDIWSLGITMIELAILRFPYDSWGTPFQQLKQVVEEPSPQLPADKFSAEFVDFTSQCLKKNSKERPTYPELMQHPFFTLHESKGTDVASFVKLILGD

Assay [2] concerns the target Tyrosine-protein kinase HCK (Homo sapiens, UniProt P08631).
Assay [3] has as its target Atypical kinase COQ8A, mitochondrial (Homo sapiens, UniProt Q8NI60).
The target of assay [4] is T2, Bone morphogenetic protein receptor type-2 (Homo sapiens, UniProt Q13873).
T2 sequence (Q13873 whole entry): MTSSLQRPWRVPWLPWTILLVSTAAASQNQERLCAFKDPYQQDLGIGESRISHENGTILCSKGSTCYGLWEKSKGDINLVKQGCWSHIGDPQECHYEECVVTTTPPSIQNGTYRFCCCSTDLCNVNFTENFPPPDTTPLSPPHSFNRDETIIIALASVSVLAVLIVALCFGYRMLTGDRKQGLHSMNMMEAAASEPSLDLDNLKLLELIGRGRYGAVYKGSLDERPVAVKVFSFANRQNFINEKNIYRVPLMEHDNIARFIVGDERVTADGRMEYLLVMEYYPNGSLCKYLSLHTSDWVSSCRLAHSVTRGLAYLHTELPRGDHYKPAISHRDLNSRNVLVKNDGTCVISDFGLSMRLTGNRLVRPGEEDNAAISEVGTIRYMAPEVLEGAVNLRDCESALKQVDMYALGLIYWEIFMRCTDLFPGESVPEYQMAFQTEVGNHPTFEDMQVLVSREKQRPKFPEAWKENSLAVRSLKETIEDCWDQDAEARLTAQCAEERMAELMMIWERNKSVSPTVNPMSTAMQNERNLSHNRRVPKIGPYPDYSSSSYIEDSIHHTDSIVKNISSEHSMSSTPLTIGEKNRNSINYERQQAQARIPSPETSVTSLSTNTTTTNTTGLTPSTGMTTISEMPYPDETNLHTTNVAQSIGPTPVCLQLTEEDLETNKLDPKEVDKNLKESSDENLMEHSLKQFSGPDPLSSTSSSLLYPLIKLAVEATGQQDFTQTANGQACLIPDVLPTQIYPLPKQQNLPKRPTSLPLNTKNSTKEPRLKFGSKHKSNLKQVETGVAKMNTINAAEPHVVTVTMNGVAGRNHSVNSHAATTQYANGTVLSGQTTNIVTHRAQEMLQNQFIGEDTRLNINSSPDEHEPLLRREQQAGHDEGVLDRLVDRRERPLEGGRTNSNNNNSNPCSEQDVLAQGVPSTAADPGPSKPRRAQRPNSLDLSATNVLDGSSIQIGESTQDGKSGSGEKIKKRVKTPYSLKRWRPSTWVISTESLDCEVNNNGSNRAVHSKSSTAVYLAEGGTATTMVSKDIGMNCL

For assay [5], the target named is T3, Mitogen-activated protein kinase kinase kinase 6 (Homo sapiens, UniProt O95382).
T3 sequence (O95382 whole entry): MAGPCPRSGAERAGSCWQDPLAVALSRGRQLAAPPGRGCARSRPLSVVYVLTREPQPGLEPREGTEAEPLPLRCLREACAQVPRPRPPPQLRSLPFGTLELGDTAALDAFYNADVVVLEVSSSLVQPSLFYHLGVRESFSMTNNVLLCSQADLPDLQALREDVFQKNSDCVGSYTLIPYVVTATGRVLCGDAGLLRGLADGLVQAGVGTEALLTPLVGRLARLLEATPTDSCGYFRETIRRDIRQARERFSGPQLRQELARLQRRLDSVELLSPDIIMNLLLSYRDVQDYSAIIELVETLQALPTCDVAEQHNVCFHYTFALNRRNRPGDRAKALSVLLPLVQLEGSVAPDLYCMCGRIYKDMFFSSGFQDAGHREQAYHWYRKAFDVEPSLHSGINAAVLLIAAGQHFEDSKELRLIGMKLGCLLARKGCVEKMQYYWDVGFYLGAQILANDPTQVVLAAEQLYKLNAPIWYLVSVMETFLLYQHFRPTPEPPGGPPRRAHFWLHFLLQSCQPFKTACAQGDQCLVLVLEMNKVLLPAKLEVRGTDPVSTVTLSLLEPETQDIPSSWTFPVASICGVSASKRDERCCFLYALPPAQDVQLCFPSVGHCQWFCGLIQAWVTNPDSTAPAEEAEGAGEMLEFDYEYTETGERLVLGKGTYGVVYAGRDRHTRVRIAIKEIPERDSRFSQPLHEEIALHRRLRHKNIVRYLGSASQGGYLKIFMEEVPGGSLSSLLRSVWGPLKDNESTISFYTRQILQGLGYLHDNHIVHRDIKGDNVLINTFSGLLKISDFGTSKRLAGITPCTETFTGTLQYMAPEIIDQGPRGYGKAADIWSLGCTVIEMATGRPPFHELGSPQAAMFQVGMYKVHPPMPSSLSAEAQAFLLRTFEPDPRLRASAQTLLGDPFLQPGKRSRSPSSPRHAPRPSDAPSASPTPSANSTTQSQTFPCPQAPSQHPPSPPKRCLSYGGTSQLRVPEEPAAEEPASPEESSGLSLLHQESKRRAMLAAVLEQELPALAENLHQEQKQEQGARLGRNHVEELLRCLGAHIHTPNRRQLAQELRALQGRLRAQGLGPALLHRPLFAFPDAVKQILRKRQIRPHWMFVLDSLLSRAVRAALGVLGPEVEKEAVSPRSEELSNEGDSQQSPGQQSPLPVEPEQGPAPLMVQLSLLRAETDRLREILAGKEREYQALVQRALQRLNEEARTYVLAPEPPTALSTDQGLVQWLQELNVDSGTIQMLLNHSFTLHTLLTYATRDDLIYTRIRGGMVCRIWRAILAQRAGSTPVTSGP

The target of assay [6] is Citron Rho-interacting kinase (Homo sapiens, UniProt O14578).
The target of assay [7] is DnaJ homolog subfamily A member 1 (Homo sapiens, UniProt P31689).

Data on 14 compounds can be found in ChEMBL document CHEMBL3991601, “The target landscape of clinical kinase drugs” (Science, 2017).

Each structure is given as a SMILES string. Calls of active or inactive are those of the source. Bounds are passed on as bounds.
Note: in the data inactive means no Kd found up to 30 µM.

Chain of DnaJ homolog subfamily A member 1 (P31689 whole entry): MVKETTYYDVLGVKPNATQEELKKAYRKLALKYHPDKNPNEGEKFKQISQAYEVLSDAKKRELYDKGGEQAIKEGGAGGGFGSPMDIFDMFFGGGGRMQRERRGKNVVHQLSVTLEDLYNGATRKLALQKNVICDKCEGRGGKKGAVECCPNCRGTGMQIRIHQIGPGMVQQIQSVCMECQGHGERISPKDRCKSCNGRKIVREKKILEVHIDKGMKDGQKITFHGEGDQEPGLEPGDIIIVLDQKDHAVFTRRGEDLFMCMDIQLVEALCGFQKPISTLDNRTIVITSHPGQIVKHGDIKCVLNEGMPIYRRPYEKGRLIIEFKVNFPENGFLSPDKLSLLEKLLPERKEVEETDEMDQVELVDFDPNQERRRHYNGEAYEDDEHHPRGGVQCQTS
Chain of Atypical kinase COQ8A, mitochondrial (Q8NI60 whole entry): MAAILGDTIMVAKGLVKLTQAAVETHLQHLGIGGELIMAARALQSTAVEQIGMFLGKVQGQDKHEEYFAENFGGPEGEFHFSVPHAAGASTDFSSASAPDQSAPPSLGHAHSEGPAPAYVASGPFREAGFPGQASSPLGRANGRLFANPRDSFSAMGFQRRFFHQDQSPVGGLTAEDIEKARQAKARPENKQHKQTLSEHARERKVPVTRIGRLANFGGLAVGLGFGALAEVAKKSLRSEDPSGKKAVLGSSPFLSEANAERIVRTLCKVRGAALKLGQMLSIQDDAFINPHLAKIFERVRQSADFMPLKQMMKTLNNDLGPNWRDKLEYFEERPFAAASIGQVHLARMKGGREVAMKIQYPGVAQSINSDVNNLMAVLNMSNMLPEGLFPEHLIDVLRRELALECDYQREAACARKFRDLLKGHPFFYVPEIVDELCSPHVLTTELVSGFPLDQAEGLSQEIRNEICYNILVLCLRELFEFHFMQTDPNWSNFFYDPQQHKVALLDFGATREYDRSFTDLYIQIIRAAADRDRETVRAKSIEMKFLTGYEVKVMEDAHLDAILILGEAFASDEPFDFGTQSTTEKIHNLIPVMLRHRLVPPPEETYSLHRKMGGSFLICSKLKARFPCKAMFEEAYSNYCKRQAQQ
Chain of Tyrosine-protein kinase HCK (P08631 whole entry): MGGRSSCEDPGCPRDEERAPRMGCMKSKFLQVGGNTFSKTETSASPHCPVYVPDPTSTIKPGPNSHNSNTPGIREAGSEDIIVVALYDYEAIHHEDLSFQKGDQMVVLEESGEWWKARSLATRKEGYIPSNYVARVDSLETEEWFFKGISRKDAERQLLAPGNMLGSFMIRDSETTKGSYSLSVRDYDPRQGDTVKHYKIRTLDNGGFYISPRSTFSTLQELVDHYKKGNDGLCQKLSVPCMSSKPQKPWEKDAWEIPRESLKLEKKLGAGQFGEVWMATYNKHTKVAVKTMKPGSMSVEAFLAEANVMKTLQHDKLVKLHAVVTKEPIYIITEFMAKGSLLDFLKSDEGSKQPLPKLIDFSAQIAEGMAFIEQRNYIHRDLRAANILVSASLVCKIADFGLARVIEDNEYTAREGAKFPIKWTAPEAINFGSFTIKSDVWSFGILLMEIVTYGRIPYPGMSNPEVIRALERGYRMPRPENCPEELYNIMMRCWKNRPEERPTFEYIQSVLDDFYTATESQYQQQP
Chain of Citron Rho-interacting kinase (O14578 whole entry): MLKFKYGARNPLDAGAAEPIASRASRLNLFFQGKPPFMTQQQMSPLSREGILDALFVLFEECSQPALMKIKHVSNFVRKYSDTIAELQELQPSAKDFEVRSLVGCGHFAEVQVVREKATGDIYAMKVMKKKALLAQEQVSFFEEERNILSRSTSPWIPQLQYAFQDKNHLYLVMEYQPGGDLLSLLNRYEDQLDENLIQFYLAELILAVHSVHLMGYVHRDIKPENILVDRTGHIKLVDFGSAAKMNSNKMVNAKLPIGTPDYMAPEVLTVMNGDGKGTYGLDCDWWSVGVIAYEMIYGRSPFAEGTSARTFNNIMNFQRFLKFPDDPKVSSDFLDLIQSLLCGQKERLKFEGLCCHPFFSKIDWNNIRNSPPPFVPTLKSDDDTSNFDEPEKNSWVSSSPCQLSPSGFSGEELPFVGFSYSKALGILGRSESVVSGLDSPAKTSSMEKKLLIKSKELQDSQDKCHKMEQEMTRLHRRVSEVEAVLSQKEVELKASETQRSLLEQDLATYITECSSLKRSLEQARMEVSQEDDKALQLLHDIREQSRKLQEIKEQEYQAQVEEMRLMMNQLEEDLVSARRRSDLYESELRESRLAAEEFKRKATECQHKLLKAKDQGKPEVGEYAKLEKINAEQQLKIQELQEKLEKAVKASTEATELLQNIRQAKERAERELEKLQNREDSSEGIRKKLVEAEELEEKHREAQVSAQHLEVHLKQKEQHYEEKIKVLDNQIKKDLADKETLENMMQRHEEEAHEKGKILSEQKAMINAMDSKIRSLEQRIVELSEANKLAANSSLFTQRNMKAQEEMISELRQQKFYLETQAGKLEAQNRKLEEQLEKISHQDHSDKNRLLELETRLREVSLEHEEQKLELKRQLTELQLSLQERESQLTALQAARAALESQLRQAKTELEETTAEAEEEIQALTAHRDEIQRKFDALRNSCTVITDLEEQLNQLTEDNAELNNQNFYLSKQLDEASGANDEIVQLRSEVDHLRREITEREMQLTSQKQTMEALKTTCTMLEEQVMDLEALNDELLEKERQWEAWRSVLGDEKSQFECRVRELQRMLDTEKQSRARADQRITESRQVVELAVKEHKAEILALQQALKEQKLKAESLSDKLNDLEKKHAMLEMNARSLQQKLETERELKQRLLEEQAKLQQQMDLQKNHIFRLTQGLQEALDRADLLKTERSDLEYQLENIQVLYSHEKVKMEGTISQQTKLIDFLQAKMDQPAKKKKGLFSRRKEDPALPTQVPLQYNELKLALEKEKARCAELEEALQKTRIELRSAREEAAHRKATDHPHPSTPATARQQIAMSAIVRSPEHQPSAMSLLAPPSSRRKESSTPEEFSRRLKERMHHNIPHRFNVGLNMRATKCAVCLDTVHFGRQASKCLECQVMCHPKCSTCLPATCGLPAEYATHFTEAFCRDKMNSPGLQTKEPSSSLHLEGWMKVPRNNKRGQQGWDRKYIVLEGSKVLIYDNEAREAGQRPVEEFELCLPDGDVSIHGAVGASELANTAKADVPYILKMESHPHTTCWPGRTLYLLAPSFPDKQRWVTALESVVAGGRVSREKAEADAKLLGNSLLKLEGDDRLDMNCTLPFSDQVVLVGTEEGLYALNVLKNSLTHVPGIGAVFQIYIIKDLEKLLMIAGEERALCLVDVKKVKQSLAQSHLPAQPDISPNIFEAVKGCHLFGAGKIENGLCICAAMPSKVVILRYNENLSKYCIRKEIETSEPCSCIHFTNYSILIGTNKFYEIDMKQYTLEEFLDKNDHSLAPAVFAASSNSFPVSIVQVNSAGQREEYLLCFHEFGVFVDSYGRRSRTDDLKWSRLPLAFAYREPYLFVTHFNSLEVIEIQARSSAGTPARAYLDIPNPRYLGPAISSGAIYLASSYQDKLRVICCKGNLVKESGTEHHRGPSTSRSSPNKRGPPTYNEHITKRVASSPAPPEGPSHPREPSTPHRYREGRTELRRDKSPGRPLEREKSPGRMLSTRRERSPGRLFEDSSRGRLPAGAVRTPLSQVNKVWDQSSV

With `C=CCN(/C=C1/C(=O)O[C@H](COC)[C@@]2(C)C1=C(O)C(=O)C1=C2[C@H](OC(C)=O)C[C@]2(C)C(=O)CC[C@@H]12)CC=C` [SONOLISIB], the Kd in assay [1], in assay [2], in assay [3], in assay [4], in assay [5] and in assay [6] was > 30 µM (inactive) each time. Moreover, the Kd – broadly, the constant that tells how readily two partners part at equilibrium – in assay [7] was > 30 µM (inactive).

For the compound `COCCN1CCN(Cc2ccc(-c3n[nH]c4c3C(=O)c3c(NC(=O)NN5CCOCC5)cccc3-4)cc2)CC1` [RGB-286638], the Kd in assay [1] was 1.95 µM (active); in assay [2] it was > 30 µM (inactive); in assay [3], > 30 µM (inactive); in assay [4], 0.153 µM; in assay [5], > 30 µM (inactive); in assay [6], 0.763 µM (active). In addition, in assay [7], the Kd is > 30 µM (inactive).

`Cn1c(=O)c(F)c(Nc2ccc(I)cc2F)c2c(=O)n(C[C@@H](O)CO)cnc21` [TAK-733]: the Kd in assay [1], in assay [2], in assay [3], in assay [4], in assay [5] and in assay [6] was > 30 µM (inactive) in each case. In assay [7], the Kd is > 30 µM (inactive).

Take `COc1cc(Nc2ncc(F)c(Nc3ccc4c(n3)N(COP(=O)(O)O)C(=O)C(C)(C)O4)n2)cc(OC)c1OC` [FOSTAMATINIB]: the Kd in assay [1], in assay [2], in assay [3], in assay [4], in assay [5] and in assay [6] was > 30 µM (inactive) in each case. In addition, the Kd in assay [7] was > 30 µM (inactive).

In the case of `C#Cc1cccc(Nc2ncnc3cc4c(cc23)OCCOCCOCCO4)c1` [ICOTINIB], the Kd in assay [1], in assay [2], in assay [3], in assay [4], in assay [5] and in assay [6] was > 30 µM (inactive) each time. Further, in assay [7], the Kd was > 30 µM (inactive).

Take `Cn1cc(-c2[nH]c3cc(NC(=O)[C@H](N)C4CCCCC4)cc4c3c2C=NNC4=O)cn1`: the Kd in assay [1] was > 30 µM (inactive); in assay [2], 0.436 µM (active); in assay [3] it was > 30 µM (inactive); in assay [4], > 30 µM (inactive); in assay [5] it was > 30 µM (inactive); in assay [6] it was 0.725 µM (active). Also, the Kd in assay [7] is > 30 µM (inactive).

Regarding `FC(F)(F)c1ccc(CNc2ccc(Cc3c[nH]c4ncc(Cl)cc34)cn2)cn1` [PEXIDARTINIB], the Kd in assay [1], in assay [2], in assay [3], in assay [4], in assay [5] and in assay [6] was > 30 µM (inactive) in each case. For the same compound, the Kd in assay [7] is > 30 µM (inactive).

`CC(C)(O)CC(=O)NCCn1ccc2ncnc(Nc3ccc(Oc4cccc(C(F)(F)F)c4)c(Cl)c3)c21` [TAK-285]: the Kd in assay [1], in assay [2], in assay [3], in assay [4], in assay [5] and in assay [6] was > 30 µM (inactive) throughout. In assay [7], the Kd was > 30 µM (inactive).

As for `Cc1cc(C(=O)Nc2cc(Oc3ccc4nc(NC(=O)C5CC5)cn4n3)ccc2C)n(C)n1` [TAK-593], the Kd in assay [1], in assay [2], in assay [3], in assay [4], in assay [5] and in assay [6] was > 30 µM (inactive) each time. Also, the Kd in assay [7] was > 30 µM (inactive).

Consider `C=CCn1c(=O)c2cnc(Nc3ccc(N4CCN(C)CC4)cc3)nc2n1-c1cccc(C(C)(C)O)n1` [ADAVOSERTIB], for which the Kd in assay [1], in assay [2], in assay [3], in assay [4], in assay [5] and in assay [6] was > 30 µM (inactive) each time. Also, the Kd in assay [7] is > 30 µM (inactive).

`CCc1nc(C(N)=O)c(Nc2ccc(N3CCC(N4CCN(C)CC4)CC3)c(OC)c2)nc1NC1CCOCC1` [GILTERITINIB]: the Kd is 1.89 µM (active) in assay [1]; 1.59 µM (active) in assay [2]; > 30 µM (inactive) in assay [3]; > 30 µM (inactive) in assay [4]; > 30 µM (inactive) in assay [5]; 2.35 µM (active) in assay [6]. Moreover, the Kd in assay [7] is > 30 µM (inactive).

Consider `NC[C@@](O)(c1ccc(Cl)cc1)c1ccc(-c2cn[nH]c2)cc1` [AT-13148], for which the Kd in assay [1], in assay [2], in assay [3], in assay [4], in assay [5] and in assay [6] was > 30 µM (inactive) throughout. The Kd in assay [7] was > 30 µM (inactive).

In the case of `COc1cc(F)c(F)c(Nc2ccc(I)cc2F)c1NS(=O)(=O)C1(C[C@H](O)CO)CC1` [REFAMETINIB], the Kd in assay [1], in assay [2], in assay [3], in assay [4], in assay [5] and in assay [6] was > 30 µM (inactive) each time. In assay [7], the Kd was > 30 µM (inactive).

For `COc1cc2ncnc3c2cc1OCCCCCN(C)Cc1ccc(Br)cc1N3` [JNJ-26483327], the Kd in assay [1], in assay [2], in assay [3], in assay [4], in assay [5] and in assay [6] was > 30 µM (inactive) in each case. In assay [7], the Kd is > 30 µM (inactive).
